What was measured:
LRRK2 G2019S [1] = biological target: T1, LRRK2 G2019S (Homo sapiens, UniProt Q5S007, G2019S); experiment: TR-FRET cellular assay for LRRK2 Ser935 phosphorylation, U-2 OS cells, BacMam LRRK2-GFP G2019S; assay type: cell-based; set-up: This high-throughput assay utilizes cells expressing full-length human LRRK2 with a C-terminal GFP tag (LRRK2-GFP); host or cells: U-2 OS, SH-SY5Y, HEK293T cells or human neural stem cells transduced with BacMam
Description: (§1) U-2 OS cells are maintained in growth medium (McCoy’s 5A supplemented with 10% dialyzed FBS (dFBS), 10 mM HEPES, 0.1 mM NEAA, 1 mM Sodium Pyruvate, and 100 U/mL Penicillin/100 µg/mL Streptomycin). HEK293T cells are maintained in DMEM with 10% dFBS, 10 mM HEPES, 0.1 mM NEAA and 100 U/mL Penicillin/100 µg/mL Streptomycin. SH-SY5Y cells are maintained in DMEM/F-12 medium supplemented with 10% dFBS and 100 U/mL Penicillin/100 µg/mL Streptomycin. […] GIBCO® human neural stem cells (hNSCs) were propagated as an adherent culture in StemPro® NSC SFM according to the manufacturer’s recommended protocol (Life Technologies). For BacMam transduction of U-2 OS and HEK293T, cells were harvested, mixed with various amounts of BacMam LRRK2-GFP reagent (v/v) and plated onto 6-well plates. […] Cells were assayed in 384-well format (∼20,000 cells/well) 48 hours post-transduction as above.
(§2) Transduced cells in the 384-well assay plate were incubated with indicated inhibitors (5X, 5 µL/well) for 60 to 90 minutes. During this time, 6 X lysis buffer (Life Technologies) was supplemented with 30 nM Tb-labeled anti-LRRK2 pSer935 antibody and both protease and phosphatase inhibitor cocktails (Sigma). The complete 6 X lysis buffer was added to each well (5 µL/well) and the plates were incubated at room temperature in the dark for 2 hours. […] A sigmoidal dose-response equation with varying slope was used to fit the data and generate IC50 values. Z′-factor values were calculated as: Z′-factor = 1 - [(3 × stdevno virus +3 × stdevmaxvirus)/(avgmaxvirus – avgno-virus)]. The IC50 values reported in Table 1 are the averaged numbers from three independent experiments.

LRRK2 A2016T/G2019S = biological target: T2, LRRK2 A2016T/G2019S (Homo sapiens, UniProt Q5S007, A2016T/G2019S); experiment: Immunoprecipitation/Western analysis of LRRK2 phosphorylation in T-REx HEK293 cells expressing inhibitor desensitizing mutant; assay type: cell-based; settings: 20 µM, Figure 6 IRM
T2 construct: expressed in transfected cells
T2 sequence (Q5S007 whole entry A2016T/G2019S): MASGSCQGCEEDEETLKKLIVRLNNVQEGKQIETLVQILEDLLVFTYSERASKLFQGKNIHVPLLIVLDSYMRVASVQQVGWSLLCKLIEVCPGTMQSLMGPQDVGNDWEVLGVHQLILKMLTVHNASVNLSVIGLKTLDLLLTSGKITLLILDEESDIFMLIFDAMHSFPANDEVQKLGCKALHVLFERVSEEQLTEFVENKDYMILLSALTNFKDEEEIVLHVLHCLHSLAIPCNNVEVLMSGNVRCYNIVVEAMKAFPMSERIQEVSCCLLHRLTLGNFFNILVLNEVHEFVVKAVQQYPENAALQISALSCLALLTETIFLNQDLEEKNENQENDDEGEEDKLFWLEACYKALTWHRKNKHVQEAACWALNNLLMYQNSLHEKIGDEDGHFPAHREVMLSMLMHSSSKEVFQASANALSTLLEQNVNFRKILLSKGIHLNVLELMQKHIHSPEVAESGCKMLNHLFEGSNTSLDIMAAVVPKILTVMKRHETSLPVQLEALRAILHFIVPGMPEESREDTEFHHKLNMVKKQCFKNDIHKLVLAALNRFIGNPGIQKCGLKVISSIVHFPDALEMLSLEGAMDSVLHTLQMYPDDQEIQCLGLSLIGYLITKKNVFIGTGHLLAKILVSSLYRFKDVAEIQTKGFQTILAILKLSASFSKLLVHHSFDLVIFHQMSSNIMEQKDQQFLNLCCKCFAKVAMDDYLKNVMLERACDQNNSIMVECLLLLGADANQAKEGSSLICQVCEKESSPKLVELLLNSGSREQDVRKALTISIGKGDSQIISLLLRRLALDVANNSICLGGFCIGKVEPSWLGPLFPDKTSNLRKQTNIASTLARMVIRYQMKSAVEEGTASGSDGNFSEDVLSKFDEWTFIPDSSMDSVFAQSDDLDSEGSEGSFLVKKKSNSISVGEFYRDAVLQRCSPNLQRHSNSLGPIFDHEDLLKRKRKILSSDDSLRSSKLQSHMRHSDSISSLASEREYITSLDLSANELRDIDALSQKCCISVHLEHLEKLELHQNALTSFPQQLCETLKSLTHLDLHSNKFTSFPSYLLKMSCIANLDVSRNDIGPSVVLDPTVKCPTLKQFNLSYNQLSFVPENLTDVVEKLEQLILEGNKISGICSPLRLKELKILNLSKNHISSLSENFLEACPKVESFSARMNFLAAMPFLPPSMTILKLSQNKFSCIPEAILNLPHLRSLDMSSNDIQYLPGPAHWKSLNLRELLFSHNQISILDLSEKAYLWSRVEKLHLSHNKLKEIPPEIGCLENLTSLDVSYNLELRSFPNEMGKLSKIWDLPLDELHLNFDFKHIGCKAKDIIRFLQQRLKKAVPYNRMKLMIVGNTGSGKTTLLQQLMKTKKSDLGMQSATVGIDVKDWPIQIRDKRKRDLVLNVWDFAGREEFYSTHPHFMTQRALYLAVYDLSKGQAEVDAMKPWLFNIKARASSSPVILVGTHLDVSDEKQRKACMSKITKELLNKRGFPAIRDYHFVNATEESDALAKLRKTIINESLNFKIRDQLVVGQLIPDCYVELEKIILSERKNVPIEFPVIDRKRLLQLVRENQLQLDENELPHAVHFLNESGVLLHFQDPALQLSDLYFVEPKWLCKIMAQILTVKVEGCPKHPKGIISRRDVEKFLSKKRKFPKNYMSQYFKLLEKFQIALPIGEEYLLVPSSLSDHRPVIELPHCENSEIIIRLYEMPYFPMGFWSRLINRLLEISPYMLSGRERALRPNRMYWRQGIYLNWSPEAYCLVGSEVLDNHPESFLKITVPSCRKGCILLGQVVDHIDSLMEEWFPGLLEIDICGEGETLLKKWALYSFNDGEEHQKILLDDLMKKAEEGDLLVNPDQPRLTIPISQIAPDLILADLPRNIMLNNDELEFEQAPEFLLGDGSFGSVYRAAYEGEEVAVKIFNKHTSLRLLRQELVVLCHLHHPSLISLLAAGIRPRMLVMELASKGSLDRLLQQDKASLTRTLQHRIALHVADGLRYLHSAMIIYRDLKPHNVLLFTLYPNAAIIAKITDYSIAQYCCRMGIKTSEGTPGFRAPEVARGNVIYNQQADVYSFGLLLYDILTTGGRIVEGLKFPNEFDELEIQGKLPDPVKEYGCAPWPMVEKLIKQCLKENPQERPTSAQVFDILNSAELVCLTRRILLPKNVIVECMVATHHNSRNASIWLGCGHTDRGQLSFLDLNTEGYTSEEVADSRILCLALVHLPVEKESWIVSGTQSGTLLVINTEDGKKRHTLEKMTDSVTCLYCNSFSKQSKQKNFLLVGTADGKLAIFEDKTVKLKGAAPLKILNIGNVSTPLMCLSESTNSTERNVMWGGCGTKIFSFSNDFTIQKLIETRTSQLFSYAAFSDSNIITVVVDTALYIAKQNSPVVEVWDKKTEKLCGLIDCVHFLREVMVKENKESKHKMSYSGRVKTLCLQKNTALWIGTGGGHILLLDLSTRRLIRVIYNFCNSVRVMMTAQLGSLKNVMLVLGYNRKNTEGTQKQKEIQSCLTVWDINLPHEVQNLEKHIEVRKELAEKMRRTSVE
Description: Immunoblot analysis: BacMam LRRK2-GFP transduced U-2 OS or SH-SY5Y cells (10^7 cells) were left untreated or treated with 3 µM LRRK2-IN-I for 90 min. For lysate preparation, the cells were washed once with ice-cold PBS and lysed by addition of ice-cold lysis buffer (20 mM Tris-HCl, pH 7.4, 1% NP-40, 5 mM EDTA, 5 mM NaF, 150 mM NaCl, and 1∶100 of protease and phosphatase inhibitor cocktails). The lysate was cleared of debris by centrifugation. Equal amount of total protein was loaded onto each lane for SDS-PAGE (3–8% Tris Acetate). The proteins were transferred onto nitrocellulose membrane using the iBLOT® dry blotting system (Life Technologies) according to manufacturer’s protocol. The membranes were blocked and incubated with a primary antibody against LRRK2 (Cell Signaling Technologies), followed by incubation with alkaline phosphatase-conjugated secondary antibody (WesternBreeze® chromogenic Kit, Life Technologies). The blot was developed by using the chromogenic BCIP/NBT substrate (WesternBreeze® chromogenic Kit, Life Technologies). […] Two days post induction, cells were treated for 90 minutes in the presence of 20 µM of compound or DMSO vehicle control. Cells were rapidly lysed in ice cold lysis buffer 50 mM Tris/HCl, pH 7.5, 1 mM EGTA, 1 mM EDTA, […] 1 mM sodium orthovanadate, 10 mM sodium beta-glycerolphosphate, 50 mM NaF, 5 mM sodium pyrophosphate, 0.27 M sucrose, 1 mM benzamidine and 2 mM phenylmethanesulphonylfluoride (PMSF) and one tablet each complete protease inhibitor and PhosSTOP phosphatase inhibitor (Roche) and was supplemented with 1% (v/v) Triton X-100. GFP-LRRK2 was immunoprecipitated with GFP nanotrap beads (ChromoTek). Immunecomplexes were washed twice with lysis buffer supplemented with 300 mM NaCl and once with Buffer A (50 mM Tris/HCl, pH 7.5, 50 mM NaCl, 0.1 mM EGTA and 0.1% (v/v) 2-mercaptoethanol, and 0.27 M sucrose).

LRRK2 G2019S [2] = biological target: T1, LRRK2 G2019S; experiment: TR-FRET cellular assay for LRRK2 Ser935 phosphorylation, SH-SY5Y cells, BacMam LRRK2-GFP G2019S (incl. Tocriscreen Mini library screen and follow-up); assay type: cell-based; set-up: This high-throughput assay utilizes cells expressing full-length human LRRK2 with a C-terminal GFP tag (LRRK2-GFP); host or cells: SH-SY5Y cells transduced with BacMam
LRRK2 G2019S [3] = biological target: T1, LRRK2 G2019S; experiment: TR-FRET cellular assay for LRRK2 Ser935 phosphorylation, HEK293T cells, BacMam LRRK2-GFP G2019S; set-up: This high-throughput assay utilizes cells expressing full-length human LRRK2 with a C-terminal GFP tag (LRRK2-GFP); host or cells: HEK293T cells transduced with BacMam; settings: +/- SD, three independent experiments, * = partial inhibition, read-out: IC50, TR-FRET cell-based assay for Ser935 phosphorylation of LRRK2
Description: as §1, §2

T1 sequence (Q5S007 whole entry G2019S): as the sequence (Q5S007 whole entry A2016T/G2019S) above, with T2016A counted along it

COc1cc(C(=O)N2CCC(N3CCN(C)CC3)CC2)ccc1Nc1ncc2c(n1)N(C)c1ccccc1C(=O)N2C [LRRK2-IN-1]
IC50 (LRRK2 G2019S [1]; 20% BacMam G2019S, 90 min, Figure 2B, read-out: IC50, inhibition of TR-FRET signal (Ser935 phosphorylation)): 30 nM
IC50 (LRRK2 G2019S [1]; G2019S, +/- SD, three independent experiments, * = partial inhibition, read-out: IC50, TR-FRET cell-based assay for Ser935 phosphorylation of LRRK2): 50 nM
effect of desensitizing mutation A2016T/G2019S on compound-induced dephosphorylation (IP-Western) (LRRK2 A2016T/G2019S): rescued phosphorylation
IC50 (LRRK2 G2019S [2]; SH-SY5Y, 25% BacMam G2019S, 90 min, Figure 3C, read-out: IC50, inhibition of TR-FRET signal (Ser935 phosphorylation)): 40 nM
IC50 (LRRK2 G2019S [2]; SH-SY5Y, G2019S, +/- SD, three independent experiments, * = partial inhibition, read-out: IC50, TR-FRET cell-based assay for Ser935 phosphorylation of LRRK2): 60 nM
inhibition at 10 µM (LRRK2 G2019S [2]; SH-SY5Y, LRRK2-IN-1 positive control used at 10 µM, SH-SY5Y G2019S, read-out: %Inhibition Initial screen (positive control)): 100%
IC50 (LRRK2 G2019S [2]; cryopreserved pretransduced SH-SY5Y cells, 25% BacMam G2019S, 90 min, Figure S3, read-out: IC50 using cryopreserved cells): ~40 nM
IC50 (LRRK2 G2019S [2]; dose-response follow-up, SH-SY5Y G2019S, three independent experiments, read-out: Cellular TR-FRET Assay IC50 +/-SD): 70 nM
IC50 (LRRK2 G2019S [3]): 60 nM

— article PMC3429506, “Screening for Novel LRRK2 Inhibitors Using a High-Throughput TR-FRET Cellular Assay for LRRK2 Ser935 Phosphorylation” (PLoS ONE, 2012)
